Assay results from patent US10966426B2, “Herbicidal compositions comprising phenylpyrimidines” (BASF SE, priority 2016, dated 2021).

Tests used:
Format in all cases: in vivo
Digitaria sanguinalis [1] = test: greenhouse pre-emergence treatment, DIGSA; conditions: DIGSA; for % activity: 21 DAT
Excerpt: (§1) The culture containers used were plastic pots containing loamy sand with approximately 3.0% of humus as substrate. The seeds of the test plants were sown separately for each species.
(§2) For the pre-emergence treatment, the active compounds, suspended or emulsified in water, were applied directly after sowing by means of finely distributing nozzles. The containers were irrigated gently to promote germination and growth and subsequently covered with transparent plastic hoods until the plants had rooted. This cover caused uniform germination of the test plants unless this was adversely affected by the active compounds.
(§3) Depending on the species, the plants were kept at 10-25° C. and 20-35° C., respectively.
(§4) The test period extended over 2 to 4 weeks. During this time, the plants were tended and their response to the individual treatments was evaluated.
(§5) Evaluation was carried out using a scale from 0 to 100. 100 means no emergence of the plants, or complete destruction of at least the above-ground parts, and 0 means no damage or normal course of growth. A good herbicidal activity is given at values of at least 70, and very good herbicidal activity is given at values of at least 85.
(§6) The respective stated components A and B, and if appropriate, C were formulated as a 10% by weight strength emulsion concentrate and, with addition of the amount of solvent system, introduced into the spray liquor used for applying the active compound. In the examples, the solvent used was water.
(§7) In the examples below, using the method of S. R. Colby (1967) “Calculating synergistic and antagonistic responses of herbicide combinations”, Weeds 15, p. 22ff., the value E, which is expected if the activity of the individual active compounds is only additive, was calculated. E=X+Y−(X·Y/100) where X=effect in percent using herbicide A at an application rate a; • Y=effect in percent using herbicide B at application rate b; • E=expected effect (in %) of herbicide A+herbicide B at application rates a+b.

Avena fatua = test: greenhouse pre-emergence treatment, AVEFA; conditions: AVEFA, trifludimoxazin solo 36 gai/ha, 20 DAT
Excerpt: as §1, §2, §3, §4, §5, §6, §7

Setaria viridis [2] = test: greenhouse pre-emergence treatment, SETVI; conditions: SETVI; for % activity: 21 DAT
Excerpt: as §1, §2, §3, §4, §5, §6, §7

Ambrosia elatior = test: greenhouse pre-emergence treatment, AMBEL; conditions: AMBEL; for % activity, solo application: Table X2; for % activity: 21 DAT
Excerpt: as §1, §2, §3, §4, §5, §6, §7

Brachiaria decumbens [3] = test: greenhouse pre-emergence treatment, BRADC; conditions: 20 DAT, BRADC
Excerpt: as §1, §2, §3, §4, §5, §6, §7

Galium aparine = test: greenhouse pre-emergence treatment, GALAP; conditions: GALAP; for % activity, solo application: Table X2
Excerpt: as §1, §2, §3, §4, §5, §6, §7

Lolium multiflorum = test: greenhouse pre-emergence treatment, LOLMU; conditions: LOLMU, 20 DAT
Excerpt: as §1, §2, §3, §4, §5, §6, §7

Helianthus annuus = test: greenhouse pre-emergence treatment, HELAN; conditions: HELAN
Excerpt: as §1, §2, §3, §4, §5, §6, §7

Papaver rhoeas = test: greenhouse post-emergence treatment, PAPRH; conditions: solo, WG 75%, PAPRH, 20 DAT
Summary of the method: (§8)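 Scale 0–100 damage rating (100 = complete destruction of above-ground parts, 0 = normal growth), read 2 to 4 weeks after post-emergence application of aqueous spray liquor to plants 3–15 cm tall.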

Alopecurus myosuroides = test: greenhouse post-emergence treatment, ALOMY; conditions: solo, WG 75%, ALOMY, 50 gai/ha, 20 DAT
Summary of the method: (§9)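 Visual damage score 0–100 (0 = normal growth; 100 = no emergence/above-ground parts destroyed), read 2–4 wk post-treatment. Loamy sand, ~3.0% humus; seedlings grown in place or transplanted days before spraying; water as solvent; 10-25° C. or 20-35° C. per species. Combination expectations by Colby: E=X+Y−(X·Y/100).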

Digitaria sanguinalis [4] = test: greenhouse post-emergence treatment, DIGSA; conditions: solo, WG 75%, DIGSA, 100 gai/ha, 20 DAT
Summary of the method: as §9

Polygonum convolvulus = test: greenhouse pre-emergence treatment, POLCO; conditions: POLCO
Excerpt: as §1, §2, §3, §4, §5, §6, §7

Brachiaria decumbens [5] = test: greenhouse post-emergence treatment, BRADC; conditions: 20 DAT, BRADC
Summary of the method: (§10)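 Post-emergence greenhouse spray on 3–15 cm plants, sown direct or transplanted a few days before treatment. Scored visually on a 0–100 scale after 2 to 4 weeks; expected additive effect computed by Colby: E=X+Y−(X·Y/100).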

Stellaria media = test: greenhouse pre-emergence treatment, STEME; conditions: 21 DAT
Excerpt: as §1, §2, §3, §4, §5, §6, §7

Setaria viridis [6] = test: greenhouse post-emergence treatment, SETVI; conditions: 20 DAT, SETVI
Summary of the method: as §9

Bromus sterilis [7] = test: greenhouse post-emergence treatment, BROST; conditions: solo, WG 75%, BROST, 20 DAT
Summary of the method: as §9

Poa annua = test: greenhouse post-emergence treatment, POAAN; conditions: solo, WG 75%, POAAN, 12.5 gai/ha, 20 DAT
Summary of the method: as §10

Matricaria chamomilla = test: greenhouse post-emergence treatment, MATCH; conditions: solo, WG 75%, MATCH, 20 DAT
Summary of the method: as §8

Bromus sterilis [8] = test: greenhouse pre-emergence treatment, BROST; conditions: solo, WG 75%, BROST, 50 gai/ha, 21 DAT
Excerpt: as §1, §2, §3, §4, §5, §6, §7

Apera spica-venti = test: greenhouse pre-emergence treatment, APESV; conditions: Apera spica-venti, 480 h, 20 DAT, flumioxazin WG 51% solo 3.75 gai/ha
Excerpt: as §1, §2, §3, §4, §5, §6, §7

[9] = 4.5 gai/ha (SC 500 g/l), 20 DAT, Table X2
[10] = 4.5 gai/ha (SC 500 g/l), 20 DAT
[11] = trifludimoxazin solo 18 gai/ha, 20 DAT
[12] = trifludimoxazin solo 36 gai/ha, 20 DAT
[13] = solo, WG 75%, 50 gai/ha, 21 DAT
[14] = solo, WG 75%, 12.5 gai/ha, 21 DAT
[15] = solo, WG 75%, 25 gai/ha, 21 DAT

C#CCN1C(=O)C(F)(F)Oc2cc(F)c(-n3c(=O)n(C)c(=S)n(C)c3=O)cc21 [trifludimoxazin]
% activity, solo application (Digitaria sanguinalis [1]; [9]): 50% | % activity (Avena fatua): 50% | % activity, solo application (Setaria viridis [2]; [9]): 75% | % activity, solo application (Ambrosia elatior; [10]): 0% | % activity, solo application (Ambrosia elatior; 9 gai/ha (SC 500 g/l), 20 DAT): 50% | % activity, solo application (Brachiaria decumbens [3]; 9 gai/ha (SC 500 g/l), Table X2): 45% | % activity (Brachiaria decumbens [3]; trifludimoxazin solo 18 gai/ha): 50% | % activity (Brachiaria decumbens [3]; trifludimoxazin solo 36 gai/ha): 80% | % activity, solo application (Galium aparine; [10]): 0% | % activity, solo application (Galium aparine; 9 gai/ha (SC 500 g/l), 20 DAT): 0% | % activity, solo application (Galium aparine; 18 gai/ha (SC 500 g/l), 20 DAT): 0% | % activity, solo application (Galium aparine; 36 gai/ha (SC 500 g/l), 20 DAT): 40% | % activity (Galium aparine; trifludimoxazin solo 4.5 gai/ha, 20 DAT): 0% | % activity (Galium aparine; trifludimoxazin solo 9 gai/ha, 20 DAT): 0% | % activity (Galium aparine; [11]): 0% | % activity (Galium aparine; [12]): 40% | % activity (Lolium multiflorum; trifludimoxazin solo 36 gai/ha): 75% | % activity, solo application (Helianthus annuus; 18 gai/ha (SC 500 g/l), 20 DAT, Table X2): 0% | % activity (Helianthus annuus; [11]): 0% | % activity (Helianthus annuus; [12]): 30%

O=C(Nc1ccc(F)cc1)c1cccc(Oc2cccc(C(F)(F)F)c2)n1 [picolinafen]
% activity (Digitaria sanguinalis [1]; picolinafen solo 12.5 gai/ha): 0% | % activity (Digitaria sanguinalis [1]; solo, WG 75%, 25 gai/ha): 30% | % activity (Digitaria sanguinalis [1]; solo, WG 75%, 50 gai/ha): 60% | % activity (Setaria viridis [2]; picolinafen solo 25 gai/ha): 70% | % activity (Setaria viridis [2]; picolinafen solo 50 gai/ha): 80% | % activity (Setaria viridis [2]; picolinafen solo 100 gai/ha): 85% | % activity (Setaria viridis [2]; picolinafen solo 250 gai/ha): 70% | % activity (Setaria viridis [2]; solo, WG 75%, 12.5 gai/ha): 45% | % activity (Setaria viridis [2]; solo, WG 75%, 50 gai/ha): 80% | % activity (Papaver rhoeas; 12.5 gai/ha): 35% | % activity (Papaver rhoeas; 25 gai/ha): 40% | % activity (Papaver rhoeas; 50 gai/ha): 55% | % activity (Papaver rhoeas; 100 gai/ha): 80% | % activity (Ambrosia elatior; picolinafen solo 50 gai/ha): 0% | % activity (Ambrosia elatior; solo, WG 75%, 12.5 gai/ha): 0% | % activity (Ambrosia elatior; solo, WG 75%, 25 gai/ha): 0% | % activity (Ambrosia elatior; solo, WG 75%, 50 gai/ha): 0% | % activity (Alopecurus myosuroides): 10% | % activity (Digitaria sanguinalis [4]): 75% | % activity (Polygonum convolvulus; [13]): 20% | % activity (Brachiaria decumbens [5]; picolinafen WG 75% solo 25 gai/ha): 35% | % activity (Brachiaria decumbens [5]; picolinafen WG 75% solo 50 gai/ha): 50% | % activity (Brachiaria decumbens [5]; solo, WG 75%, 25 gai/ha): 35% | % activity (Brachiaria decumbens [5]; solo, WG 75%, 50 gai/ha): 50% | % activity (Stellaria media; picolinafen solo 25 gai/ha): 20% | % activity (Stellaria media; picolinafen solo 50 gai/ha): 50% | % activity (Stellaria media; picolinafen solo 100 gai/ha): 65% | % activity (Galium aparine; [14]): 0% | % activity (Galium aparine; [15]): 0% | % activity (Setaria viridis [6]; picolinafen WG 75% solo 12.5 gai/ha): 30% | % activity (Setaria viridis [6]; solo, WG 75%, 12.5 gai/ha): 30% | % activity (Setaria viridis [6]; solo, WG 75%, 50 gai/ha): 80% | % activity (Helianthus annuus; picolinafen solo 12.5 gai/ha, 21 DAT): 10% | % activity (Helianthus annuus; picolinafen solo 50 gai/ha, 21 DAT): 15% | % activity (Helianthus annuus; [14]): 10% | % activity (Helianthus annuus; [15]): 20% | % activity (Helianthus annuus; [13]): 15% | % activity (Bromus sterilis [7]; 12.5 gai/ha): 0% | % activity (Bromus sterilis [7]; 25 gai/ha): 0% | % activity (Bromus sterilis [7]; 50 gai/ha): 10% | % activity (Bromus sterilis [7]; 100 gai/ha): 20% | % activity (Poa annua): 40% | % activity (Matricaria chamomilla; 12.5 gai/ha): 0% | % activity (Matricaria chamomilla; 25 gai/ha): 20% | % activity (Matricaria chamomilla; 50 gai/ha): 20% | % activity (Bromus sterilis [8]): 20%

C#CCN1C(=O)COc2cc(F)c(N3C(=O)C4=C(CCCC4)C3=O)cc21 [flumioxazin]
percent weed control (herbicidal activity, 0-100 scale) at 3.75 g/ha (Ambrosia elatior; Ambrosia artemisiifolia, 480 h, 20 DAT, flumioxazin WG 51% solo 3.75 gai/ha): 0% | percent weed control (herbicidal activity, 0-100 scale) at […] (Ambrosia elatior; Ambrosia artemisiifolia, 480 h, 20 DAT, flumioxazin WG 51% solo 7.5 gai/ha): 0% | inhibition at […] (Polygonum convolvulus; Fallopia convolvulus, 480 h, 20 DAT, flumioxazin WG 51% solo 7.5 gai/ha): 65% | % herbicidal activity (weed control, 0-100 scale) at 15 g/ha (Brachiaria decumbens [3]; Urochloa decumbens, 480 h, flumioxazin WG 51% solo 15 gai/ha): 40% | % herbicidal activity (weed control, 0-100 scale) at […] (Galium aparine; Galium aparine, 480 h, 20 DAT, flumioxazin WG 51% solo 7.5 gai/ha): 0% | % herbicidal activity (weed control, 0-100 scale) at 30 g/ha (Galium aparine; Galium aparine, 480 h, 20 DAT, flumioxazin WG 51% solo 30 gai/ha): 65% | inhibition at 30 g/ha (Lolium multiflorum; Lolium multiflorum, 480 h, flumioxazin WG 51% solo 30 gai/ha): 65% | inhibition at 3.75 g/ha (Apera spica-venti): 25% | inhibition at 30 g/ha (Helianthus annuus; Helianthus annuus, 480 h, 20 DAT, flumioxazin WG 51% solo 30 gai/ha): 50%
